Assay results taken from patent publication US20090275648A1, “MACROCYCLIC GHRELIN RECEPTOR ANTAGONISTS AND INVERSE AGONISTS AND METHODS OF USING THE SAME” (priority 2005, published 2009).

Legend:
[1] = target: T1, ghrelin receptor (Homo sapiens, UniProt Q92847); experiment: Aequorin functional assay (ghrelin receptor), Example 3; format: cell-based; set-up: host or cells: CHO-K1 cells co-expressing Gα16 and mitochondrially targeted Aequorin; conditions: for IC50: antagonist testing vs ghrelin at EC80 (3.7 nM)
From the text: The functional activity of compounds of the invention found to bind to the GHS-R1a receptor can be determined using the method described below. (LePoul, E.; et al. Adaptation of aequorin functional assay to high throughput screening. J. Biomol. Screen. 2002, 7, 57-65; Bednarek, M. A.; et al. Structure-function studies on the new growth hormone-releasing peptide ghrelin: minimal sequence of ghrelin necessary for activation of growth hormone secretagogue receptor 1a. J. Med. Chem. 2000, 43, 4370-4376; Palucki, B. L.; et al. Spiro(indoline-3,4′-piperidine) growth hormone secretagogues as ghrelin mimetics. Bioorg. Med. Chem. Lett. 2001, 11, 1955-1957).
Membranes were prepared using AequoScreen™ (EUROSCREEN, Belgium) cell lines expressing the human ghrelin receptor (cell line ES-410-A; receptor accession #60179). This cell line is constructed by transfection of the human ghrelin receptor into CHO-K1 cells co-expressing Gα16 and the mitochondrially targeted Aequorin (Ref #ES-WT-A5). • 1. Ghrelin (reference agonist; Bachem, #H-4864) • 2. Assay buffer: DMEM (Dulbecco's Modified Eagles Medium) containing 0.1% BSA (bovine serum albumin; pH 7.0. • 3. Coelenterazine (Molecular Probes, Leiden, The Netherlands)
Stock solutions of compounds (10 mM in 100% DMSO) were provided frozen on dry ice and stored at −20° C. prior to use. From the stock solution, mother solutions were made at a concentration of 500 μM 20-fold dilution in 26% DMSO. Assay plates were then prepared by appropriate dilution in DMEM medium containing 0.1% BSA. Under these conditions, the maximal final DMSO concentration in the assay was <0.6%.
AequoScreen™ cells were collected from culture plates with Ca^2+ and Mg^2+-free phosphate buffered saline (PBS) supplemented with 5 mM EDTA, pelleted for 2 minutes at 1000×g, re-suspended in DMEM-Ham's F12 containing 0.1% BSA at a density of 5×10^6 cells/ml and incubated overnight at room temperature in the presence of 5 μM coelenterazine. After loading, cells were diluted with assay buffer to a concentration of 5×10^5 cells/ml.
For agonist testing, 50 μl of the cell suspension was mixed with 50 μl of the appropriate concentration of test compound or ghrelin (reference agonist) in 96-well plates (duplicate samples). Ghrelin (reference agonist) is tested at several concentrations concurrently with the test compounds in order to validate the experiment. The emission of light resulting from receptor activation in response to ghrelin or test compounds was recorded using the Hamamatsu FDSS 6000 reader (Hamamatsu Photonics K.K., Japan).
For antagonist testing, an approximate EC80 concentration of ghrelin (i.e. 3.7 nM; 100 μL) was injected onto the cell suspension containing the test compounds (duplicate samples) 15-30 minutes after the end of agonist testing and the consequent emission of light resulting from receptor activation was measured as described in the paragraph above.
Results are expressed as Relative Light Units (RLU). […] For agonist testing, results for each concentration of test compound were expressed as percent activation relative to the signal induced by ghrelin at a concentration equal to the EC80 (i.e. 3.7 nM). EC50, Hill slope and % Emax values are reported.
For antagonist testing, results for each concentration of test compound were expressed as percent inhibition relative to the signal induced by ghrelin at a concentration equal to the EC80.

[2] = target: T1, ghrelin receptor; experiment: Inverse agonist assay, Example 4; format: cell-based; conditions: inverse agonist activity
From the text: The inverse agonist activity at the ghrelin receptor for compounds of the invention can be determined using the methods described in Intl. Pat. Appl. Publ. No. WO 2004/056869 and Holst, B.; Cygankiewicz, A.; Halkjaer, T.; Ankersen, A.; Schwartz, T. W. High constitutive signaling of the ghrelin receptor—identification of a potent inverse agonist. Mol. Endocrinol. 2003, 17, 2201-2210.

[3] = target: T2, human ghrelin receptor (hGHS-R1a) (Homo sapiens, UniProt Q92847); experiment: Competitive radioligand binding assay (ghrelin receptor), [125I]-ghrelin, GHS-R/HEK 293 membranes; conditions: competition with [125I]-ghrelin
T2 construct: purchased PerkinElmer BioSignal #RBHGHSM, lot#1887; host or cells: HEK-293 cells, stably transfected; membranes
Procedure: The competitive binding assay at the human growth hormone secretagogue receptor (HGHS-R1a) was carried out analogously to assays described in the literature. (Bednarek M A et al. Structure-function studies on the new growth hormone-releasing peptide ghrelin: minimal sequence of ghrelin necessary for activation of growth hormone secretagogue receptor 1a; J. Med. Chem. 2000, 43, 4370-4376; Palucki, B. L. et al. Spiro(indoline-3,4′-piperidine) growth hormone secretagogues as ghrelin mimetics; Bioorg. Med. Chem. Lett. […], 11, 1955-1957).
Membranes (GHS-R/HEK 293) were prepared from HEK-293 cells stably transfected with the human ghrelin receptor (hGHS-R1a). These membranes were provided by PerkinElmer BioSignal (#RBHGHSM, lot#1887) and utilized at a quantity of 0.71 μg/assay point. • 1. [^125]-Ghrelin (PerkinElmer, #NEX-388); final concentration: 0.0070-0.0085 nM • 2. […] Multiscreen Harvest plates-GF/C (Millipore, #MAHFC1H60) • 4. Deep-well polypropylene titer plate (Beckman Coulter, #267006) • 5. TopSeal-A (PerkinElmer, #6005185) • 6. Bottom seal (Millipore, #MATAH0P00) • 7. MicroScint-0 (PerkinElmer, #6013611) • 8. Binding Buffer: 25 mM Hepes (pH 7.4), 1 mM CaCl2, 5 mM MgCl2, 2.5 mM EDTA, 0.4% BSA
Competition experiments were performed in a 300 μl filtration assay format. • 1. 220 μL of membranes diluted in binding buffer • 2. 40 μL of compound diluted in binding buffer • 3.
Compounds were provided frozen on dry ice at a stock concentration of 10 mM diluted in 100% DMSO and stored at −80° C. until the day of testing. On the test day, compounds were allowed to thaw at rt overnight and then diluted in assay buffer according to the desired test concentrations. Under these conditions, the maximal final DMSO concentration in the assay was 0.1%.
In deep-well plates, 220 μL of diluted cell membranes (final concentration: 0.71 μg/well) were combined with 40 μL of either binding buffer (total binding, N=5), 1 μM ghrelin (non-specific binding, N=3) or the appropriate concentration of test compound N=2 for each test concentration). […] Plates were sealed with TopSeal-A, vortexed gently and incubated at rt for 30 min. The reaction was arrested by filtering samples through Multiscreen Harvest plates (pre-soaked in 0.5% polyethyleneimine) using a Tomtec Harvester, washed 9 times with 500 μL of cold 50 mM Tris-HCl (pH 7.4, 4° C.), and then plates were air-dried in a fumehood for 30 min. A bottom seal was applied to the plates prior to the addition of 25 μL of MicroScint-0 to each well. Plates were than sealed with TopSeal-A and counted for 30 sec per well on a TopCount Microplate Scintillation and Luminescence Counter (PerkinElmer) using a count delay of 60 sec. Results were expressed as counts per minute (cpm).
Data were analyzed by GraphPad Prism (GraphPad Software, San Diego, Calif.) using a variable slope non-linear regression analysis.
Dmax values were calculated using the following formula: […]
where total and non-specific binding represent the cpm obtained in the absence or presence of 1 μM ghrelin, respectively.

T1 sequence (Q92847 whole entry): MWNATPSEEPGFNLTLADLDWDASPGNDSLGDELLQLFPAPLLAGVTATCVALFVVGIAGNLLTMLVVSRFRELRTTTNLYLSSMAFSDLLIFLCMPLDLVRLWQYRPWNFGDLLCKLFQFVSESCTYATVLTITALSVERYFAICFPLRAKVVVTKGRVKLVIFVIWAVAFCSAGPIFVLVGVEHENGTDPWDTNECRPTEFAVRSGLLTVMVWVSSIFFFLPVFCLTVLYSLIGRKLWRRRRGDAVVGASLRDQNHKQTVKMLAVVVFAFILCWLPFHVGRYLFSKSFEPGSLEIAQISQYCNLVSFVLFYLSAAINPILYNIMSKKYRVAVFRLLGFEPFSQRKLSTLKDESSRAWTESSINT
T2 sequence (Q92847 whole entry): as above

| Structure (SMILES) | receptor activation (agonist activity) ([1]; agonist testing, in comparison to known ghrelin agonists) | IC50 [1] [nM] | IC50 [2] [nM] | Ki [3] [nM] |
| --- | --- | --- | --- | --- |
| CCC(C)[C@@H]1NCCOc2ccccc2CCCNC(=O)[C@@H](Cc2ccccc2)NC(=O)[C@@H](CO)N(C)C1=O (stereo in doubt) [Compound 152] | no receptor activation | 100 to 1500 | > 10000 | 100 to 1000 |
| CCC(C)[C@@H]1NCCOc2ccccc2CCCNC(=O)[C@@H](Cc2ccccc2)NC(=O)[C@@H](C)NC1=O (stereo partly drawn) [Compound 2] | – | – | – | 100 to 1000 |
| CCC(C)[C@@H]1NCCOc2ccccc2/C=C/CNC(=O)[C@H](Cc2ccccc2)NC(=O)[C@@H](C)NC1=O (stereo partly drawn) [Compound 14] | – | – | – | 100 to 1000 |
| CCC[C@@H]1NCCOc2ccccc2CCCNC(=O)[C@@H](Cc2ccccc2)NC(=O)[C@H](C)NC1=O [Compound 59] | – | – | – | 1000 to 10000 |
| CCC[C@@H]1NCCOc2ccccc2CCCNC(=O)[C@@H](Cc2ccccc2)NC(=O)[C@@H](C)NC1=O [Compound 60] | – | – | – | 100 to 1000 |
| CCC[C@@H]1NCCOc2ccccc2CCCNC(=O)[C@@H](Cc2ccccc2)NC(=O)[C@H](C)N(C)C1=O [Compound 79] | – | – | – | 100 to 1000 |
| CC(C)C[C@@H]1NCCOc2ccccc2CCCNC(=O)[C@H](Cc2ccccc2)NC(=O)[C@H](C)NC1=O [Compound 93] | – | – | – | 1000 to 10000 |
| CC(C)C[C@@H]1NCCOc2ccccc2CCCNC(=O)[C@H](Cc2ccccc2)NC(=O)[C@@H](C)NC1=O [Compound 94] | – | – | – | 1000 to 10000 |
| CCC(C)[C@@H]1NCCOc2ccccc2CCCNC(=O)[C@@H](Cc2ccccc2)NC(=O)[C@@H](CO)NC1=O (stereo partly drawn) [Compound 151] | – | – | – | 1000 to 10000 |
| CCC(C)[C@@H]1NCCOc2ccccc2CCCNC(=O)[C@@H](Cc2ccccc2)NC(=O)[C@@H](COC(C)(C)C)NC1=O (stereo partly drawn) [Compound 215] | – | – | – | 1000 to 10000 |
| CCC(C)[C@@H]1NCCOc2ccccc2CCCNC(=O)[C@@H](Cc2ccc(F)cc2)NC(=O)[C@@H](COCc2ccccc2)N(C)C1=O (stereo partly drawn) [Compound 501] | – | – | – | 100 to 1000 |
| CCC(C)[C@@H]1NCCOc2ccccc2CCCNC(=O)[C@@H](Cc2ccccc2)NC(=O)[C@H](C(C)O)N(C)C1=O (stereo partly drawn) [Compound 503] | – | 1 to 100 | 100 to 1000 | 1 to 100 |
| CCC(C)[C@@H]1NCCOc2ccccc2/C=C/CNC(=O)[C@@H](Cc2ccc(F)cc2)NC(=O)[C@H](C(C)O)N(C)C1=O (stereo partly drawn) [Compound 504] | – | 1 to 100 | 100 to 1000 | 1 to 100 |
| CC(O)[C@H]1C(=O)N[C@H](Cc2ccc(F)cc2)C(=O)NCCCc2ccccc2O[C@H](C)CN[C@@H](C2CC2)C(=O)N1C (stereo partly drawn) [Compound 505] | – | 100 to 1500 | 100 to 1000 | 100 to 1000 |
| CCC(C)[C@@H]1NCCOc2ccccc2CCCNC(=O)[C@@H](Cc2ccccc2)NC(=O)[C@H](CCO)N(C)C1=O (stereo partly drawn) [Compound 506] | – | 100 to 1500 | > 10000 | 100 to 1000 |
| CCC(C)[C@@H]1NCCOc2ccccc2/C=C\CNC(=O)[C@@H](Cc2ccc(F)cc2)NC(=O)[C@H](C(C)O)N(C)C1=O (stereo partly drawn) [Compound 508] | – | 100 to 1500 | – | 1 to 100 |
| CC[C@@H](C)[C@H]1NCCOc2ccccc2CCCNC(=O)[C@@H](Cc2ccccc2)NC(=O)[C@H]([C@H](C)O)N(C)C1=O [Compound 509] | – | > 1500 | – | 100 to 1000 |
